Article PMC4865535, “Effect of carbamazepine on dolutegravir pharmacokinetics and dosing recommendation” (European Journal of Clinical Pharmacology, 2016)
Several values for one entry are separate records, joined by “and”; a condition that tells them apart may be missing. Identical values can stand only once. Like-named read-outs stand apart in the source and are kept apart here.

Experiments:
[1] = set-up: method as in ref 11 = [11]; 11. Tegretol ® (carbamazepine) [package insert]. East Hanover: Novartis; 2014; settings: cited from earlier work
[2] = Safety evaluations (adverse events, laboratory tests) in the crossover study; type: in vivo, human; settings: for Subjects who experienced at least one AE: by treatment period; for Drug-related adverse events: ALT increased / Drug-related adverse events: Any event / Drug-related adverse events: Asthenia / Drug-related adverse events: Cognitive disorder / Drug-related adverse events: Drug reaction with eosinophilia and systemic symptoms / Drug-related adverse events: Fatigue / Drug-related adverse events: Headache / Drug-related adverse events: Hyponatremia / Drug-related adverse events: Leukopenia / Drug-related adverse events: Lymphopenia / Drug-related adverse events: Nausea / Drug-related adverse events: Pain in extremity / Drug-related adverse events: Photosensitivity reaction / Drug-related adverse events: Pyrexia / Drug-related adverse events: Rash maculopapular / Drug-related adverse events: Thirst / Drug-related adverse events: Thrombocytopenia: DTG alone n = 16, CBZ alone n = 16, DTG + CBZ n = 14
Procedure: Safety evaluations included the monitoring of adverse events (AEs), physical examinations, clinical chemistry laboratory tests, vital signs, and electrocardiograms. Additionally, assessment of Columbia suicide severity rating scale scores was performed throughout the study, because CBZ exposure (along with exposure to several other AEDs) has been associated with increased risk of suicidal ideation and depression.

MRP2 = test system: MRP2; set-up: method as in PMID 23132334; settings: in vitro; cited from earlier work
OATP1B1 = test system: OATP1B1; set-up: method as in PMID 23132334; settings: in vitro; cited from earlier work
OATP1B3 = test system: OATP1B3; set-up: method as in PMID 23132334; settings: in vitro; cited from earlier work
[3] = set-up: method as in PMID 25146692, PMID 23075918; settings: DTG co-administered with tipranavir/ritonavir, efavirenz, and rifampin; cited from earlier work
[4] = Steady-state plasma DTG pharmacokinetics with and without CBZ (phase I open-label fixed-sequence crossover study); type: in vivo, human; settings: for half-life: read-out: t1/2 (terminal elimination half-life) of DTG, geometric mean (CV%) (converted)
Procedure: This was a phase I, single-site, open-label, fixed-sequence, crossover study with three treatment periods to evaluate the effect of an oral extended-release formulation of CBZ on the steady-state PK of orally administered DTG in 16 healthy subjects. The study was conducted in accordance with the principles of the Declaration of Helsinki. A written informed consent was obtained from all subjects, and the protocol was approved by the institutional review board of the study site. The trial was registered at ClinicalTrials.gov (NCT01967771; protocol number: 200901). During period 1, subjects received DTG 50 mg once daily as a single agent for days 1 to 5. During period 2, subjects received CBZ alone and the dose was escalated: 100 mg twice daily for days 1 to 3, 200 mg twice daily for days 4 to 6, and 300 mg twice daily for days 7 to 16. During period 3, DTG 50 mg once daily was co-administered with CBZ 300 mg twice daily for days 1 to 5. There was no washout between treatment periods. As CBZ is recommended to be given with food per product information, all doses in the testing unit, including those on PK collection days, were administered orally in the morning 30 min after the start of the moderate-fat meal, and subjects were asked to do the same when dosing outside the unit. Subjects were housed at the clinical research unit from period 1, day 1, until the morning of period 2, day 8, as well as from period 2, day 16, through period 3, day 6. Phone call reminders and pill counts were employed when subjects self-administered CBZ as outpatients during period 2, days 8 to 16. […] Plasma samples were analyzed for DTG by PPD, Inc. (Middleton, WI) using a validated analytical method based on protein precipitation with acetonitrile containing the stable isotope-labeled internal standard (GSK1349572-d7-^15N), followed by high-performance liquid chromatography/tandem mass spectrometry analysis. The lower limit of quantification for DTG in plasma was 20 ng/mL, and the upper limit of quantification was 20,000 ng/mL. Precision and accuracy were evaluated by replicate analyses of human plasma quality control samples prepared at five concentrations: 60, 160, 640, 2400, and 15,200 ng/mL. Precision, measured as the percent coefficient of variation, ranged from 3.0 to 5.9 % across the quality control range. […] Both were within acceptance standards of 15 %. A non-compartmental PK analysis of the DTG concentration-time data was conducted by Phast Clinical Data, Inc. (Raleigh, NC). Pharmacokinetic analyses of plasma DTG concentration-time data were analyzed using Model 200 (for extravascular administration) of Phoenix WinNonlin version 6.3 (Pharsight Corporation, St. Louis, MO). Plasma PK parameters for DTG were calculated using actual elapsed times from dosing. The individual PK parameters that were determined included area under the curve from time zero to the end of the dosing interval (AUC(0-τ)), maximum observed plasma concentration (Cmax), plasma concentration at the end of the dosing interval (Cτ), oral clearance, and terminal half-life. This study was designed to estimate the magnitude of drug-interaction effect of CBZ on the PK parameters of DTG. No formal hypothesis was tested. Instead, an estimation approach was used to evaluate the effect of CBZ on DTG PK. Pharmacokinetic parameters were log-transformed and analyzed by analysis of variance to determine the point estimate and associated 90 % confidence intervals for the difference between test treatment (DTG + CBZ) and reference treatment (DTG alone). These values were then back-transformed to calculate the point and interval estimates for test-to-reference treatment ratios on the original scale. Geometric least-squares mean ratios and 90 % confidence intervals were generated by the mixed-effect model for within-subject treatment comparisons.

CYP1A2 = test system: CYP1A2; set-up: method as in PMID 23132334; settings: in vitro; cited from earlier work
CYP isozymes = test system: CYP isozymes; set-up: method as in PMID 23132334; settings: in vitro; cited from earlier work
P-glycoprotein (P-gp) = test system: P-glycoprotein (P-gp); set-up: method as in PMID 23132334; settings: cited from earlier work
CYP2B6 = test system: CYP2B6; set-up: method as in PMID 23132334; settings: in vitro; cited from earlier work
P-gp = test system: P-gp; set-up: method as in PMID 23132334; settings: in vitro; cited from earlier work
[5] = test system: breast cancer resistance protein; set-up: method as in PMID 23132334; settings: in vitro; cited from earlier work
[6] = test system: cytochrome P450 (CYP) 3A4; set-up: method as in PMID 23132334; settings: minor component; primarily metabolized by UGT1A1; cited from earlier work
CYP3A4 [7] = test system: CYP3A4; set-up: method as in PMID 23132334; settings: in vitro; cited from earlier work
CYP3A4 [8] = test system: CYP3A4; set-up: method as in ref 1 = [1]; 1. Tivicay ® (dolutegravir) [package insert]. Research Triangle Park: ViiV Healthcare; 2014; settings: midazolam as probe substrate for CYP3A4, healthy subjects; cited from earlier work
UGT2B7 = test system: UGT2B7; set-up: method as in PMID 23132334; settings: in vitro; cited from earlier work
UGT1A1 = test system: UGT1A1; set-up: method as in PMID 23132334; settings: in vitro; cited from earlier work
[9] = DTG 50 mg once daily alone, day 5 of period 1, n = 16
[10] = DTG co-administered with CBZ vs DTG alone
[11] = DTG co-administered with CBZ, 14 subjects with PK results in both periods

NC(=O)N1c2ccccc2C=Cc2ccccc21 [CBZ, Carbamazepine]
half-life ([1]; following chronic dosing): 12 to 17 h | half-life ([1]; following single dosing): 25 to 65 h | Subjects who experienced at least one AE ([2]; healthy subjects): six | Drug-related adverse events: ALT increased ([2]; healthy subjects): 1 (6) n (%) | Drug-related adverse events: Any event ([2]; healthy subjects): 6 (38) n (%) | Drug-related adverse events: Asthenia ([2]; healthy subjects): 1 (6) n (%) | Drug-related adverse events: Cognitive disorder ([2]; healthy subjects): 1 (6) n (%) | Drug-related adverse events: Drug reaction with eosinophilia and systemic symptoms ([2]; healthy subjects): 1 (6) n (%) | Drug-related adverse events: Fatigue ([2]; healthy subjects): 0 n (%) | Drug-related adverse events: Headache ([2]; healthy subjects): 2 (13) n (%) | Drug-related adverse events: Hyponatremia ([2]; healthy subjects): 1 (6) n (%) | Drug-related adverse events: Leukopenia ([2]; healthy subjects): 1 (6) n (%) | Drug-related adverse events: Lymphopenia ([2]; healthy subjects): 1 (6) n (%) | Drug-related adverse events: Nausea ([2]; healthy subjects): 1 (6) n (%) | Drug-related adverse events: Pain in extremity ([2]; healthy subjects): 1 (6) n (%) | Drug-related adverse events: Photosensitivity reaction ([2]; healthy subjects): 0 n (%) | Drug-related adverse events: Pyrexia ([2]; healthy subjects): 1 (6) n (%) | Drug-related adverse events: Rash maculopapular ([2]; healthy subjects): 1 (6) n (%) | Drug-related adverse events: Thirst ([2]; healthy subjects): 1 (6) n (%) | Drug-related adverse events: Thrombocytopenia ([2]; healthy subjects): 2 (13) n (%) | White blood cell count (decrease) ([2]; one subject with suspected grade 2 hypersensitivity syndrome on 300 mg CBZ twice daily, period 2, baseline 8800 cells/mm^3): 3800 cells/mm^3 | Subjects permanently discontinued because of AEs ([2]; period 2 (CBZ alone)): Two | Platelet count (low) ([2]; same subject on 300 mg CBZ twice daily, 159,000 3 days before): 78,000 cells/mm^3 | ALT level (high) ([2]; same subject on 300 mg CBZ twice daily, grade 2): 151 IU/L

C[C@@H]1CCO[C@H]2Cn3cc(C(=O)NCc4ccc(F)cc4F)c(=O)c(O)c3C(=O)N12 [DTG, Dolutegravir]
Direct inhibition of MRP2 (MRP2): minimal or no direct inhibition | Direct inhibition of OATP1B1 (OATP1B1): minimal or no direct inhibition | Direct inhibition of OATP1B3 (OATP1B3): minimal or no direct inhibition | Reduction of DTG AUC(0-τ) [3]: 36 to 49% | Reduction of DTG Cτ [3]: 72 to 76% | CL/F (oral clearance) of DTG, geometric mean (CV%) [4, 9]: 0.929 (21.4) L/h | Cτ of plasma DTG, geometric mean (CV%) [4, 9]: 1.20 (39.1) μg/mL | Increase of dolutegravir clearance [4, 10]: 95% | Reduction of geometric mean AUC(0-τ) of DTG [4, 10]: 49% | Reduction of geometric mean Cmax of DTG [4, 10]: 33% | Reduction of geometric mean Cτ of DTG [4, 10]: 73% and ~ 73% | Reduction in AUC(0-τ) on an individual subject basis [4, 11]: 27 to 58% | Reduction in Cτ on an individual subject basis [4, 11]: 53 to 82% | half-life ([4]; human, plasma, oral, DTG 50 mg once daily + CBZ 300 mg twice daily, day 5 of period 3, n = 14): 7.31 h | Cmax ([4]; human, plasma, oral, DTG 50 mg once daily alone, day 5 of period 1, n = 16, read-out: Cmax of plasma DTG, geometric mean (CV%)): 4160 ng/mL | half-life ([4]; human, plasma, oral, DTG 50 mg once daily alone, day 5 of period 1, n = 16): 12.9 h | AUC ([4]; human, plasma, DTG 50 mg once daily alone, day 5 of period 1, oral with moderate-fat meal, healthy subjects, n = 16, read-out: AUC(0-τ) of plasma DTG, geometric mean (CV%)): 53800 ng·h/mL | Induction of CYP1A2 (CYP1A2): not an inducer | Direct inhibition of CYP isozymes (CYP isozymes): minimal or no direct inhibition | Tolerability ([2]; DTG alone and co-administered with CBZ, healthy subjects): well tolerated | Subjects who experienced at least one AE ([2]; healthy subjects): No subjects experienced AEs | Drug-related adverse events: ALT increased ([2]; healthy subjects): 0 n (%) | Drug-related adverse events: Any event ([2]; healthy subjects): 0 n (%) | Drug-related adverse events: Asthenia ([2]; healthy subjects): 0 n (%) | Drug-related adverse events: Cognitive disorder ([2]; healthy subjects): 0 n (%) | Drug-related adverse events: Drug reaction with eosinophilia and systemic symptoms ([2]; healthy subjects): 0 n (%) | Drug-related adverse events: Fatigue ([2]; healthy subjects): 0 n (%) | Drug-related adverse events: Headache ([2]; healthy subjects): 0 n (%) | Drug-related adverse events: Hyponatremia ([2]; healthy subjects): 0 n (%) | Drug-related adverse events: Leukopenia ([2]; healthy subjects): 0 n (%) | Drug-related adverse events: Lymphopenia ([2]; healthy subjects): 0 n (%) | Drug-related adverse events: Nausea ([2]; healthy subjects): 0 n (%) | Drug-related adverse events: Pain in extremity ([2]; healthy subjects): 0 n (%) | Drug-related adverse events: Photosensitivity reaction ([2]; healthy subjects): 0 n (%) | Drug-related adverse events: Pyrexia ([2]; healthy subjects): 0 n (%) | Drug-related adverse events: Rash maculopapular ([2]; healthy subjects): 0 n (%) | Drug-related adverse events: Thirst ([2]; healthy subjects): 0 n (%) | Drug-related adverse events: Thrombocytopenia ([2]; healthy subjects): 0 n (%) | Substrate of P-gp (P-glycoprotein (P-gp)): substrate of P-glycoprotein | Induction of CYP2B6 (CYP2B6): not an inducer | Direct inhibition of P-gp (P-gp): minimal or no direct inhibition | Direct inhibition of breast cancer resistance protein [5]: minimal or no direct inhibition | Component of metabolism via CYP3A4 [6]: approximately 10% | Induction of CYP3A4 (CYP3A4 [7]): not an inducer | Effect on midazolam exposure (CYP3A4 [8]): no significant effect | Direct inhibition of UGT2B7 (UGT2B7): minimal or no direct inhibition | Direct inhibition of UGT1A1 (UGT1A1): minimal or no direct inhibition
